Source: patent US11952344B2, “Heterocyclic compound and use thereof” (TAKEDA PHARMACEUTICAL COMPANY LIMITED, priority 2019, dated 2024)

Tests used:
[1] = target: T1, NMDA receptor containing the NR2B subunit (Homo sapiens, UniProt Q13224); conditions: continuous intravenous administration; cited from earlier work
[2] = target: T2, NMDA receptor containing the NR2B subunit (Rattus norvegicus, UniProt Q00960); conditions: rodents; cited from earlier work
[3] = target: T3, Human NMDA (NR1/NR2B) Receptor (Homo sapiens, UniProt Q13224); assay: NR2B Ca2+ influx assay; type: cell-based; conditions: 10 μM compound; HEK293 cells expressing GRIN1 and GRIN2B; glutamic acid/glycine-induced Ca2+ influx, Fluo-4 fluorescence; read-out: inhibitory rate (10 μM compound concentration)
T3 construct: host or cells: HEK293
T3 sequence (Q13224 27-1484, other chains not shown): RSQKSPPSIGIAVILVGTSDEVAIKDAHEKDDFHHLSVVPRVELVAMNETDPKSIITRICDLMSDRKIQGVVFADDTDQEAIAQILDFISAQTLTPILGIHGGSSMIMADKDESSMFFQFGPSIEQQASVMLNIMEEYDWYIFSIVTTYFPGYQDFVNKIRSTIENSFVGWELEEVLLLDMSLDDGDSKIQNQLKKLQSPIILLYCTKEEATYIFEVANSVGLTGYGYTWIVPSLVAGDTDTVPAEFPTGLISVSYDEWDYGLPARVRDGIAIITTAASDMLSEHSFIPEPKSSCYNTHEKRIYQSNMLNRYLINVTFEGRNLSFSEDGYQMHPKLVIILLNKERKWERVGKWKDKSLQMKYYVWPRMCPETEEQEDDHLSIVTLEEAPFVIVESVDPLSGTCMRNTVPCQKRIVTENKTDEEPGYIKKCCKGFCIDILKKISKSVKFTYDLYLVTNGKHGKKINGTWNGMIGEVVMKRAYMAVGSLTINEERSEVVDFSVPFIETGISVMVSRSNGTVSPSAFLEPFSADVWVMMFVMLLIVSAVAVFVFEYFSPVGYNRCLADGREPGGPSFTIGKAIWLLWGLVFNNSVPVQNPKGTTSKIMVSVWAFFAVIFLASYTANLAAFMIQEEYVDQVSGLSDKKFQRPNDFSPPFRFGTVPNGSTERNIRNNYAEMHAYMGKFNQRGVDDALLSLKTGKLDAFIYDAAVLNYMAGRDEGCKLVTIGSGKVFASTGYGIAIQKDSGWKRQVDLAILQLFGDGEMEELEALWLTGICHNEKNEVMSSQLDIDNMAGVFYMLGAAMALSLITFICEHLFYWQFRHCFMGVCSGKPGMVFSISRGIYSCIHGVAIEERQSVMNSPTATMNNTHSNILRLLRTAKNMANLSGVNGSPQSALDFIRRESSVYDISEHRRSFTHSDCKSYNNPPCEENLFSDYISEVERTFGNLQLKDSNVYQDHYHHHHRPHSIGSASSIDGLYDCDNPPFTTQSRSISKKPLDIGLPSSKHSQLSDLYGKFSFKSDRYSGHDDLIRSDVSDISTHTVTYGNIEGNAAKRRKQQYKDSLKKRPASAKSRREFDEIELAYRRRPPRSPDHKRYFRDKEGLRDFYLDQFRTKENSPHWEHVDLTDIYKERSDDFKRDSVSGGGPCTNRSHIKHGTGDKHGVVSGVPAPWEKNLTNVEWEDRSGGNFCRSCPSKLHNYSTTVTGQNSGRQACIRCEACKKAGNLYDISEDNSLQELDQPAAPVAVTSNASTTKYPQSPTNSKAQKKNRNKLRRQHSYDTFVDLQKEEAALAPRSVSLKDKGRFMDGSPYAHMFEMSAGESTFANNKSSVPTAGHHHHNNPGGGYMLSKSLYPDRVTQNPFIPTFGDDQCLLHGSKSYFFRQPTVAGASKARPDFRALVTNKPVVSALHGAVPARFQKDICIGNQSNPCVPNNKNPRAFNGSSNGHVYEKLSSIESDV
Summary of the method: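 HEK293 cells stably expressing human GRIN1/GRIN2B were tetracycline-induced for 2 h, loaded with Fluo-4AM and preincubated 15 min at room temperature with compound at 10 μM final. Ca2+ influx was triggered by glutamic acid and glycine and fluorescence (ex 480/em 540 nm) was recorded for 5 min. Inhibition was computed from cumulative fluorescence.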

[4] = target: T2, NMDA receptor containing the NR2B subunit; assay: [3H]MK-801 binding test in vivo (hippocampus); design: from tissue; host or cells: rat hippocampus (Sprague Dawley); species or system Sprague Dawley rats; conditions: po, [3H]MK-801 binding inhibitory rate, 1 mg/kg p.o., vehicle = 100% binding, excess MK-801 maleate = 0%
Method: Experimental Example 2 [^3H]MK-801 Binding Test In Vivo
In order to confirm “functional antagonistic action on an NMDA receptor containing the NR2B subunit in vivo” which the compound of the present invention has, binding test was performed using tritium-labeled form of MK-801 ((5R,10S)-5-methyl-10,11-dihydro-5H-5,10-epiminodibenzo[a,d][7]annulene) ([^3H]MK-801), which is a compound capable of binding to the opening site of the NMDA receptor.
The example compound (1 mg/kg/2 mL, 0.5% MC water) or vehicle ([…], 0.5% MC water) was orally administered (p.o.) to Sprague Dawley rats (body weight 180-260 g). After a certain time (around after time-to maximum blood concentration), [^3H]MK-801 (20 μCi/kg/mL, Muromachi Kikai) was intravenously administered. After 10 min, the rats were euthanized by decapitation, and subjected to craniotomy, and the hippocampus was collected. The collected hippocampus was homogenized in 30 volumes (30 mL per 1 g tissue) ice-cooled 20 mM Hepes (pH7.5, Hampton Research) using a homogenizer (T10 basic Ultra-Turrax) for […]. […] The filter was washed four times with ice-cooled saline (5 mL, Otsuka Pharmaceutical), put into a scintillation vial, and then 10 mL of liquid scintillator A (FUJIFILM Wako Pure Chemical Corporation) was added thereto, and the residual radioactivity was counted using liquid scintillation counter (ALOKA LSC-6100). Separately, the residual radioactivity in 100 μL of the homogenate before the filtration was counted in the same way. The value of [the residual radioactivity in the filter/the residual radioactivity in the 100 μL of the homogenate] was calculated as a [^3H]MK-801 binding rate to the NMDA receptor expressing in each individual hippocampus tissue. […] The difference between the percentage of [^3H]MK-801 binding rate in the group orally administered with the example compound and that in the vehicle control group (100%) was analyzed as [^3H]MK-801 binding inhibitory rate by the example compound.

[5] = target: T1, NMDA receptor containing the NR2B subunit; conditions: in vivo; cited from earlier work
NMDA receptor [6] = conditions: single intravenous administration; major depression and bipolar disorder; cited from earlier work
NMDA receptor [7] = conditions: in vivo; cited from earlier work

T2 sequence (Q00960 27-1482, other chains not shown): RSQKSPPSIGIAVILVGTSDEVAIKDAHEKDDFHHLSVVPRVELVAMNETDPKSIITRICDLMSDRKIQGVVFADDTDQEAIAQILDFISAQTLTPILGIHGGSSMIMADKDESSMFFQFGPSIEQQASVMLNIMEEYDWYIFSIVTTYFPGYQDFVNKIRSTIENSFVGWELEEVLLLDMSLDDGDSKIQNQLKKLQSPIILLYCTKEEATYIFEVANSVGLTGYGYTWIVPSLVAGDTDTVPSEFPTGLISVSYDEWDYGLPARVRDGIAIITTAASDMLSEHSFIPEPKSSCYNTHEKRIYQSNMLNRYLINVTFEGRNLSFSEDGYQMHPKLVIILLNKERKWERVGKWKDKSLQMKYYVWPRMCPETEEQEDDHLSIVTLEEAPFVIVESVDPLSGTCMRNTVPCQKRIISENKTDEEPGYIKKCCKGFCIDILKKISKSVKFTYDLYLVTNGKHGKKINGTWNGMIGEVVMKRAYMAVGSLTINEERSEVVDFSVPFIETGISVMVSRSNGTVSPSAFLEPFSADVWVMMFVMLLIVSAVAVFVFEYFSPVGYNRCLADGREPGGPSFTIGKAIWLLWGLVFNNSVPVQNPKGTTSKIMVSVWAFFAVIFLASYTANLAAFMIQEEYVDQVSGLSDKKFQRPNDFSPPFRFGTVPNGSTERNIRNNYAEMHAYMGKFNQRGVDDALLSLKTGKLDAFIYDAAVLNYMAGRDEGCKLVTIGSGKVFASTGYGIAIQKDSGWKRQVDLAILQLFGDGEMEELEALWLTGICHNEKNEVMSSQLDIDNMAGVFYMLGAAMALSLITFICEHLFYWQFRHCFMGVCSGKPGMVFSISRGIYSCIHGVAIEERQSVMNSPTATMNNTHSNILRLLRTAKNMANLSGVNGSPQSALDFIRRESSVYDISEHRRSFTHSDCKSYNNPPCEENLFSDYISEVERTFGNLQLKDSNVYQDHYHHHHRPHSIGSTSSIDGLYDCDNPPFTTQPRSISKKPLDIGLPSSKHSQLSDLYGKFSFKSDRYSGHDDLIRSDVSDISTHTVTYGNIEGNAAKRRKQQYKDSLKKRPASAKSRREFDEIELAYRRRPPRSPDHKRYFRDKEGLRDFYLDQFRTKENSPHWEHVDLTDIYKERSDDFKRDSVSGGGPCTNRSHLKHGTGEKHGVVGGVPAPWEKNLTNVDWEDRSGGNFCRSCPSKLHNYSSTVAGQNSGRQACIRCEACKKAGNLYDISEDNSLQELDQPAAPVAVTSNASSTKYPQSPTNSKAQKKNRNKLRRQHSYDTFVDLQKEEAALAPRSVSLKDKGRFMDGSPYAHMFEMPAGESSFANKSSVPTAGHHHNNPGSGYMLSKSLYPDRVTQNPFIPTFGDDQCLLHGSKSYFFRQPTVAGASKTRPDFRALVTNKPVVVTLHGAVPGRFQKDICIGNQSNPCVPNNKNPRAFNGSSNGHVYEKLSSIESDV
T1 sequence (Q13224 27-1484, other chains not shown): as the sequence (Q13224 27-1484, other chains not shown) above

SMILES | inhibition at 10 µM [3] | inhibition at 1 mg/kg [4] | other results
C[C@@H]([C@@H](O)c1ccc(O)cc1)N1CCC(O)(c2ccccc2)CC1 [CP-101, 606] | – | – | improvement of treatment resistant-depression symptom [1]: significantly improves treatment resistant-depression symptom; number of occurrence and depth of cortical spreading depression [2]: suppress the number of occurrence and the depth of cortical spreading depression
COc1ncncc1CNC(=O)c1cnc(OC(F)F)c(F)c1 [Example 12, 6-(difluoromethoxy)-5-fluoro-N-[(4-methoxypyrimidin-5-yl)methyl]pyridine-3-carboxamide] | 92% | 23% | –
COc1cncc(CNC(=O)c2cnc(OC(F)F)c(F)c2)c1 [Example 42, 6-(difluoromethoxy)-5-fluoro-N-[(5-methoxypyridin-3-yl)methyl]pyridine-3-carboxamide] | 94% | 14% | –
COc1ncncc1CNC(=O)c1cc(F)c(OC(F)F)c(F)c1 [Example 63, 4-(difluoromethoxy)-3,5-difluoro-N-[(4-methoxypyrimidin-5-yl)methyl]benzamide] | 90% | 10% | –
O=C(NCc1cnccc1OC(F)F)c1ccc(OC(F)(F)F)c(F)c1 [Example 112, N-[(4-(difluoromethoxy)-pyridin-3-yl)methyl]-3-fluoro-4-(trifluoromethoxy)-benzamide] | 96% | – | –
CC(C(O)c1ccc(O)cc1)N1CCC(Cc2ccccc2)CC1 (stereo not shown) [Ifenprodil] | – | – | pain sense threshold [5]: the pain sense threshold increases
C[C@@H](CN1CCC(Cc2ccccc2)CC1)[C@@H](O)c1ccc(O)cc1 [Ro25-6981] | – | – | number of occurrence and depth of cortical spreading depression [2]: suppress the number of occurrence and the depth of cortical spreading depression
CNC1(c2ccccc2Cl)CCCCC1=O (stereo not shown) [ketamine] | – | – | improvement of depression symptom (NMDA receptor [6]): improves depression symptom accompanying major depression and bipolar disorder rapidly and in a sustained manner
CC12CC3CC(C)(C1)CC(N)(C3)C2 [memantine] | – | – | improvement of peripheral symptoms of dementia (NMDA receptor [7]): partially improves peripheral symptoms of dementia
